Read-outs that look alike come from different tables or passages of the source.
Legend:
p38α = target: T1, p38α (Homo sapiens, UniProt Q16539); test: Western blot survey of p38 isoform degradation in MDA-MB-231 cells (incl. proteasome rescue, CHX chase, washout); assay type: cell-based; settings: for Dmax: read-out: p38α Dmax (maximum percentage of degradation achieved)
T1 construct: selectively degrades p38α, whereas exemplary PROTAC 46 (10-atom linker, phenyl attachment) selectively degrades p38δ in MDA-MB-231 cells; endogenous in cells; host or cells: MDA-MB-231
Description: (§1) FIGS. 11A and 11B. Survey of p38 isoform degradation with foretinib-based VHL PROTACs (related to FIGS. 9A-9C and Table 13). (A) Western blots of amide series PROTACs tested in increasing concentrations (0.025, 0.100, 0.250, 1.0, 5.0 μM) on MDA-MB-231 cells, in duplicate. (B) Same as in (A) but with the phenyl series PROTACs. Summary table of the DC50 (concentration at which half-maximal degradation is achieved) and Dmax (maximum percentage of degradation achieved) is reported, per exemplary PROTAC, in Table 13.
(§2) FIGS. 13A, 13B, 13C, and 13D. Exemplary compounds 50 and 46 degrade p38 isoforms in a manner that is rapid, sustained, and proteasome-dependent. (A) MDA-MB-231 cells were either pre-treated or not with the proteasome inhibitor epoxomicin (1 μM) or the neddylation inhibitor MLN4924 (1 μM) for 30 minutes and subsequently treated with either vehicle (DMSO), exemplary compound 50 (250 nM), or exemplary compound 46 (250 nM) for 6 hours. (B) Quantitative real-time PCR was performed after 24 hours of treatment with either vehicle (DMSO), exemplary compound 50 (250 nM), or exemplary compound 46 (250 nM) in MDAMB-231 cells. The dotted line represents DMSO-treated conditions standardized to a value of 1.0 and mRNA abundance (per treatment group) is represented as a foldchange relative to that value. Data is based on biological duplicates and is normalized to beta-tubulin. (C) Cycloheximide (CHX) chase assay. MDA-MB-231 cells were pre-treated with 100 μg/mL CHX for 1 hour prior to treating for the indicated times with either vehicle (DMSO), exemplary compound 50 (250 nM), or exemplary compound 46 (250 nM). Tubulin-normalized p38α and p38δ abundance values are reported beneath individual lanes. (D) MDA-MB231 cells were treated with either vehicle (DMSO), exemplary compound 50 (250 nM), or exemplary compound 46 (250 nM) for 24 hours before re-plating onto new plastic in fresh medium for an additional 24, 48, or 72 hours (“washout” conditions).
(§3) Cell culture. MDA-MB-231 and HeLa cells were obtained from the American Type Culture Collection (ATCC), cultured in RPMI-1640 (1×) and DMEM (1×) medium, respectively, containing 10% fetal bovine serum (FBS) and 1% penicillin-streptomycin and grown in a humidified incubator at 37° C. and 5% CO2.
(§4) Lysates from MDA-MB-231 cells were washed once with ice cold PBS (1×), followed by lysis in buffer containing 25 mM Tris [pH 7.5], 0.25% sodium deoxycholate, 1% Triton X-100, supplemented with 1× protease inhibitor cocktail (Roche) and phosphatase inhibitors (10 mM NaF, 1 mM Na3VO4, and 20 mM β-glycerophosphate), unless otherwise noted. Lysates were spun at 14,000×g for 10 minutes at 4° C. and supernatant was evaluated for protein content using a Pierce BCA Protein Assay (Thermo Fisher Scientific). 25 to 50 μg of protein was loaded onto 10% SDS-PAGE gels or 4-20% Criterion TGX precast gradient gels (Bio-Rad), transferred to nitrocellulose membranes, and probed with the specified antibodies overnight at 4° C. in 1×TBS-Tween (Tris buffered saline plus 0.02% Tween 20) containing 5% non-fat milk. Immunoblots were visualized using a Bio-Rad ChemiDoc imaging instrument and subsequently processed and quantified using the accompanying Bio-Rad ImageLab software.
(§5) MDA-MB-231 cells were plated at 3×10^5 cells per well in a 6-well dish, allowed to adhere overnight, and switched to serum-free RPMI-1640 (1×) media for 16 hours. Cells were then pre-treated with cycloheximide (Sigma) at 100 μg mL^−1 for 1 hour prior to adding either vehicle (DMSO) or PROTAC (250 nM). At the indicated timepoints, cells were immediately placed on ice, rinsed with 1×PBS, lysed, and boiled.
(§6) MDA-MB-231 cells were plated at 1.5×10^5 cells per well in a 6-well dish and allowed to adhere overnight. On the following day, all cells were treated with either vehicle (DMSO) or PROTAC (250 nM). […]

p38δ = target: T2, p38δ (Homo sapiens, UniProt O15264); test: as above; assay type: cell-based
T2 construct: endogenous in cells; host or cells: MDA-MB-231 (intact cells for degradation; cleared cell lysate for CETSA)
T2 sequence (O15264 1-365): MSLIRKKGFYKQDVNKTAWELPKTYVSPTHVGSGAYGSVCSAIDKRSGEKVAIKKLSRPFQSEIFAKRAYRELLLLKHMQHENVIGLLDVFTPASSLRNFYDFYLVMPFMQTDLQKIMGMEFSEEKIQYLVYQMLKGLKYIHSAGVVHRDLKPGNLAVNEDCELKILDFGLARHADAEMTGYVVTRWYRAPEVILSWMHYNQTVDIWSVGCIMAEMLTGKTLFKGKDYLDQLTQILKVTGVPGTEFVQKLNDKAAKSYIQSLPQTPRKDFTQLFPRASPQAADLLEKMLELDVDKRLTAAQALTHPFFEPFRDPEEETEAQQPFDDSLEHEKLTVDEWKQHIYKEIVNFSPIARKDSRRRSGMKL
Description: as §1, §2, §3, §4, §5, §6

[1] = 250 nM 24 hours, then re-plated without compound
[2] = 250 nM PROTAC 6 hours, pre-treated 1 μM epoxomicin or 1 μM MLN4924
[3] = MDA-MB-231 cells, western blot, read-out: p38α DC50 (concentration at which half-maximal degradation is achieved)

T1 sequence (Q16539 whole entry, canonical isoform): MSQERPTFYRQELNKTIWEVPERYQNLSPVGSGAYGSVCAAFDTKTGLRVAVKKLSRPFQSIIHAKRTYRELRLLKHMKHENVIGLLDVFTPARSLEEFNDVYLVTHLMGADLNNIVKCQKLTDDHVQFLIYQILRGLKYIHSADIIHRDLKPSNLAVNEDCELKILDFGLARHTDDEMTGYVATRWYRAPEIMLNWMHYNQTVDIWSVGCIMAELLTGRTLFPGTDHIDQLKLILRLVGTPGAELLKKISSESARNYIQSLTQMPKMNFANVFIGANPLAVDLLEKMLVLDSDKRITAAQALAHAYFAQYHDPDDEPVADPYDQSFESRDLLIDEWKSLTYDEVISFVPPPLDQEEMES

Structure (SMILES)	DC50 (p38α; MDA-MB-231 cells, western blot, read-out: p38α DC50)	Dmax (p38α; MDA-MB-231 cells, western blot)	p38δ degradation efficacy maintained post-washout (p38δ; [1])	rescue of p38δ downregulation by proteasome / neddylation inhibitor (p38δ; [2])	DC50 (p38δ; MDA-MB-231 cells, western blot)	Dmax (p38δ; MDA-MB-231 cells, western blot)	p38δ Dmax (p38δ; MDA-MB-231 cells, western blot)	DC50 (p38α; [3])	p38α degradation efficacy maintained post-washout (p38α; [1])	rescue of p38α downregulation by proteasome / neddylation inhibitor (p38α; [2])	p38α Dmax (maximum percentage of degradation achieved) (p38α; MDA-MB-231 cells, western blot)
COc1cc2c(Oc3ccc(NC(=O)C4(C(=O)Nc5ccc(F)cc5)CC4)cc3F)ccnc2cc1OCCOCCOCCOc1cc(-c2scnc2C)ccc1CNC(=O)[C@@H]1C[C@@H](O)CN1C(=O)[C@H](C(C)C)N1Cc2ccccc2C1=O [compound 46]	> 5000 nM	35%	24 h	completely rescued	79.2 ± 28 nM	98.4%	Dmax = 98.4%				
COc1cc2c(Oc3ccc(NC(=O)C4(C(=O)Nc5ccc(F)cc5)CC4)cc3F)ccnc2cc1OCCCOCCCOCCC(=O)N[C@H](C(=O)N1C[C@H](O)C[C@H]1C(=O)NCc1ccc(-c2scnc2C)cc1)C(C)(C)C [Example 1]		83%			> 5000 nM	42%		230 nM			
COc1cc2c(Oc3ccc(NC(=O)C4(C(=O)Nc5ccc(F)cc5)CC4)cc3F)ccnc2cc1OCCCCOCCCCOCC(=O)N[C@H](C(=O)N1C[C@H](O)C[C@H]1C(=O)NCc1ccc(-c2scnc2C)cc1)C(C)(C)C [compound 50, N-(3-fluoro-4-((7-(4-(4-(2-(((S)-1-((2S,4R)-4-hydroxy-2-((4-(4-methylthiazol-5-yl)benzyl)carbamoyl)pyrrolidin-1-yl)-3,3-dimethyl-1-oxobutan-2-yl)amino)-2-oxoethoxy)butoxy)buto-xy)-6-methoxyquinolin-4-yl)oxy)phenyl)-N-(4-fluorophenyl)cyclopropane-1,1-dicarboxa-mide]		99.6%			> 5000 nM	18.5%		9.5 ± 1 nM	72 h	completely rescued	Dmax = 99.6%
